Measurements from US8338143B2, “Enhanced production of paclitaxel and taxanes by cell cultures of Taxus species” (Phyton Holdings, LLC, priority 1996, dated 2012).
Read-outs that look alike come from different tables or passages of the source.

Key:
[1] = test system: Taxus chinensis cell culture SS122-42; assay: Enhancement of taxane biosynthesis by jasmonic acid and its methyl ester; format: cell-based; settings: 200 μM JMA or 89 μM MJS; Medium N + 10 μM NAA, 14 days, whole broth
Method: Seven-day old cells of Taxus chinensis suspensions cultivated in Medium M (Table 2) were suction filtered aseptically using a sterile Buchner funnel fitted with a MIRACLOTH (Calbiochem) filter. Cells were inoculated into culture medium of the given composition indicated in Table 12, at a fresh weight cell density in the range of 15% to 20% (w/v). The cultures were incubated at 24±1° C. at 120 or 180 RPM (depending on the vessel size) on a gyratory shaker (1″ throw) in the dark. Evaporation was corrected for by adding sterile distilled water. Samples of whole broth (i.e., both extracellular and intracellular taxanes) were taken at periodic intervals, and were processed and analyzed by HPLC according to the methods outlined in Example 5.

Taxus chinensis SS122-42 = assay: Enhancement of taxane biosynthesis by MDNA; format: cell-based; settings: 50 μM MDNA, 14 days, whole broth
Method: Seven-day old cells of Taxus chinensis suspension culture SS122-42 cultivated in Medium M (Table 2) were suction filtered aseptically using a sterile Buchner funnel fitted with a […] (Calbiochem) filter. […] The vessels were incubated at 24±1° C. at 180 RPM on a gyratory shaker (1'' throw) in the dark. Treated cultures were sampled and analyzed using the methods described in Example 5 at various time points. Evaporation was corrected for by adding sterile distilled water at periodic intervals.

[2] = test system: Taxus chinensis cell culture SS122-13; assay: Enhancement of taxane biosynthesis by jasmonic acid and its methyl ester; format: cell-based; settings: 89 μM MJS; Medium N + 10 μM NAA, 14 days, whole broth
Method: Seven-day old cells of Taxus chinensis suspensions cultivated in Medium M (Table 2) were suction filtered aseptically using a sterile Buchner funnel fitted with a […] (Calbiochem) filter. […] The cultures were incubated at 24±1° C. at 120 or 180 RPM (depending on the vessel size) on a gyratory shaker (1'' throw) in the dark. Evaporation was corrected for by adding sterile distilled water.

[3] = test system: Taxus chinensis cell line KS1A; assay: Enhancement of taxane biosynthesis by silver compounds; format: cell-based
Method: Analytical high performance liquid chromatography (HPLC) was performed on a high-carbon loaded diphenyl column (Supelco, 5 μM, 4.6 mm×25 cm) with an LDC Analytical binary gradient high pressure mixing system consisting of CM3500/CM3200 pumps, a CM4100 variable volume autosampler and an SM5000 photo diode array detector interfaced to a personal computer. Column temperature was regulated ay 35° C. with an Eldex CH150 column oven. Quantitative HPLC analysis of taxanes was accomplished using a binary gradient elution scheme as follows: […]
Seven-day old cells of Taxus chinensis suspension KS1A cultivated in Medium L (Table 2) were suction filtered aseptically using a sterile Buchner funnel fitted with a MIRACLOTH (Calbiochem) filter. Approximately 0.75 to 1 gram fresh weight cells were inoculated into 4 to 5 mL of culture medium of the given composition indicated in Table 10, to yield a fresh weight cell density in the range of 15% to 20% (w/v). The vessels were incubated at 25±1° C. at 120 RPM on a gyratory shaker (1″ throw) in the dark. Evaporation was corrected for by addition of sterile distilled water. Samples of whole broth (i.e., both extracellular and intracellular taxanes) were taken at periodic intervals, and were processed and analyzed by HPLC according to the methods outlined in Example 5.

Taxus spp. cell cultures [4] = assay: Elicitation of Taxus cell cultures by biotic and abiotic elicitors; settings: comparison among elicitors tested
Taxus spp. cell cultures [5] = test system: Taxus spp. cell cultures
[6] = test system: Taxus chinensis cell culture SS122-13
[7] = test system: Taxus chinensis cell culture SS6A-1224
[8] = test system: Taxus chinensis cell culture SS122-42
[9] = culture medium I (Medium N + 10 μM NAA)
[10] = culture medium II (medium I + 50 μM silver thiosulfate)

CC/C=C\C[C@H]1C(=O)CC[C@@H]1CC(=O)O [JMA, Jasmonic acid]
Baccatin III [1]: 4 mg/L
Other Taxanes [1]: 87 mg/L
Taxol (paclitaxel) [1]: 120 mg/L
Total Taxanes [1]: 211 mg/L

O=C(O)C=Cc1cc2c(cc1[N+](=O)[O-])OCO2 [MDNA, 3,4-methylenedioxy-6-nitrocinnamic acid]
Baccatin III (Taxus chinensis SS122-42; [9]): 5 mg/L
Other Taxanes (Taxus chinensis SS122-42; [9]): 45 mg/L
Taxol (paclitaxel) (Taxus chinensis SS122-42; [9]): 163 mg/L
Total Taxanes (Taxus chinensis SS122-42; [9]): 213 mg/L
Baccatin III (Taxus chinensis SS122-42; [10]): 34 mg/L
Other Taxanes (Taxus chinensis SS122-42; [10]): 89 mg/L
Taxol (paclitaxel) (Taxus chinensis SS122-42; [10]): 311 mg/L
Total Taxanes (Taxus chinensis SS122-42; [10]): 434 mg/L

CC/C=C\CC1C(=O)CCC1CC(=O)OC (centres unmarked) [MJS, methyl jasmonate]
Baccatin III [2]: 9 mg/L
Other Taxanes [2]: 63 mg/L
Taxol (paclitaxel) [2]: 73 mg/L
Total Taxanes [2]: 124 mg/L
Baccatin III [1]: 3 mg/L
Other Taxanes [1]: 109 mg/L
Taxol (paclitaxel) [1]: 121 mg/L
Total Taxanes [1]: 233 mg/L

O=C([O-])c1ccccc1.[Ag+] [Silver benzoate]
Baccatin III [3]: 40 mg/L extracellular product
Taxol (paclitaxel) [3]: 7 mg/L extracellular product
Total Taxanes [3]: 47 mg/L extracellular product

O=S(=O)([O-])[O-].[Ag+].[Ag+] [Silver sulfate]
Baccatin III [3]: 61 mg/L extracellular product
Taxol (paclitaxel) [3]: 7 mg/L extracellular product
Total Taxanes [3]: 68 mg/L extracellular product

O=C(O)c1ccccc1 [benzoic acid]
production increase by elicitation (taxane accumulation and secretion) (Taxus spp. cell cultures [4]): highest production increase

COc1cc(/C=C/C(=O)O)ccc1O [ferulic acid]
production increase by elicitation (taxane accumulation and secretion) (Taxus spp. cell cultures [4]): highest production increase

Chitosan
toxicity to cells / effect on cell viability (Taxus spp. cell cultures [5]): toxic and causes permanent cell damage

Silver oxide
Baccatin III [3]: 43 mg/L extracellular product
Taxol (paclitaxel) [3]: 18 mg/L extracellular product
Total Taxanes [3]: 61 mg/L extracellular product

Silver thiosulfate
Baccatin III [3]: 71 mg/L extracellular product
Taxol (paclitaxel) [3]: 15 mg/L extracellular product
Total Taxanes [3]: 86 mg/L extracellular product
Baccatin III [6]: 12 mg/L
Other Taxanes [6]: 60 mg/L
Taxol (paclitaxel) [6]: 103 mg/L
Total Taxanes [6]: 173 mg/L
Baccatin III [7]: 172 mg/L
Other Taxanes [7]: 126 mg/L
Taxol (paclitaxel) [7]: 86 mg/L
Total Taxanes [7]: 384 mg/L
Baccatin III [8]: 4 mg/L
Other Taxanes [8]: 38 mg/L
Taxol (paclitaxel) [8]: 146 mg/L
Total Taxanes [8]: 188 mg/L

Toluenesulfonic acid silver salt
Baccatin III [3]: 39 mg/L extracellular product
Taxol (paclitaxel) [3]: 6 mg/L extracellular product
Total Taxanes [3]: 45 mg/L extracellular product
